Test results: PubChem BioAssay (NCI)
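Following 48 hours of exposure in 96-well plates, responses at five concentrations were used to interpolate endpoints linearly. TGI: total growth inhibition.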

Columns and labels:
Assay in all cases: growth of human tumour cells (NCI), 48 h
SW-620 colon = system: SW-620 colon
DU-145 prostate = system: DU-145 prostate
U251 CNS = system: U251 CNS
RXF 393 renal = system: RXF 393 renal
SK-OV-3 ovarian = system: SK-OV-3 ovarian
COLO 205 colon = system: COLO 205 colon
786-0 renal = system: 786-0 renal
BT-549 breast = system: BT-549 breast
UACC-257 melanoma = system: UACC-257 melanoma
OVCAR-8 ovarian = system: OVCAR-8 ovarian
TK-10 renal = system: TK-10 renal
ACHN renal = system: ACHN renal
M14 melanoma = system: M14 melanoma
OVCAR-3 ovarian = system: OVCAR-3 ovarian
SNB-19 CNS = system: SNB-19 CNS
SN12C renal = system: SN12C renal
A498 renal = system: A498 renal
IGROV1 ovarian = system: IGROV1 ovarian
OVCAR-4 ovarian = system: OVCAR-4 ovarian
MALME-3M melanoma = system: MALME-3M melanoma
HCT-116 colon = system: HCT-116 colon
MDA-MB-435 = system: MDA-MB-435
MCF7 breast = system: MCF7 breast
SR leukemia = system: SR leukemia
NCI/ADR-RES ovarian = system: NCI/ADR-RES ovarian
HCC-2998 colon = system: HCC-2998 colon
LOX IMVI melanoma = system: LOX IMVI melanoma
NCI-H23 lung = system: NCI-H23 lung
A549 NSCLC = system: A549 NSCLC
SF-268 CNS = system: SF-268 CNS
NCI-H226 lung = system: NCI-H226 lung
SK-MEL-2 melanoma = system: SK-MEL-2 melanoma
T-47D breast = system: T-47D breast
CAKI-1 renal = system: CAKI-1 renal
K-562 leukemia = system: K-562 leukemia
MDA-N = system: MDA-N
HL-60(TB) leukemia = system: HL-60(TB) leukemia
PC-3 prostate = system: PC-3 prostate
UACC-62 melanoma = system: UACC-62 melanoma
SK-MEL-28 melanoma = system: SK-MEL-28 melanoma
HOP-62 NSCLC = system: HOP-62 NSCLC
NCI-H460 lung = system: NCI-H460 lung
HT29 colon = system: HT29 colon
HCT-15 colon = system: HCT-15 colon
SF-539 CNS = system: SF-539 CNS
RPMI-8226 leukemia = system: RPMI-8226 leukemia
HOP-92 NSCLC = system: HOP-92 NSCLC
SNB-75 CNS = system: SNB-75 CNS
MDA-MB-231 breast = system: MDA-MB-231 breast
SF-295 CNS = system: SF-295 CNS
UO-31 renal = system: UO-31 renal
KM12 colon = system: KM12 colon
OVCAR-5 ovarian = system: OVCAR-5 ovarian
NCI-H522 lung = system: NCI-H522 lung
CCRF-CEM leukemia = system: CCRF-CEM leukemia
HS 578T breast = system: HS 578T breast
SK-MEL-5 melanoma = system: SK-MEL-5 melanoma

Measured: TGI

O=C(O)CCC1(C(=O)O)CCC(=O)c2ccccc21 (configuration not stated)
> 100 µM: SW-620 colon | DU-145 prostate | U251 CNS | RXF 393 renal | SK-OV-3 ovarian | COLO 205 colon | 786-0 renal | BT-549 breast | UACC-257 melanoma | OVCAR-8 ovarian | TK-10 renal | ACHN renal | M14 melanoma | OVCAR-3 ovarian | SNB-19 CNS | SN12C renal | A498 renal | IGROV1 ovarian | OVCAR-4 ovarian | MALME-3M melanoma | HCT-116 colon | MDA-MB-435 | MCF7 breast | SR leukemia | NCI/ADR-RES ovarian | HCC-2998 colon | LOX IMVI melanoma | NCI-H23 lung | A549 NSCLC | SF-268 CNS | NCI-H226 lung | SK-MEL-2 melanoma | T-47D breast | CAKI-1 renal | K-562 leukemia | MDA-N | HL-60(TB) leukemia | PC-3 prostate | UACC-62 melanoma | SK-MEL-28 melanoma | HOP-62 NSCLC | NCI-H460 lung | HT29 colon | HCT-15 colon | SF-539 CNS | RPMI-8226 leukemia | HOP-92 NSCLC | SNB-75 CNS | MDA-MB-231 breast | SF-295 CNS | UO-31 renal | KM12 colon | OVCAR-5 ovarian | NCI-H522 lung | CCRF-CEM leukemia | HS 578T breast | SK-MEL-5 melanoma
